Measurements from the supplement of paper PMC11061612.

Tests used:
Test in all cases: combination Emax (second highest fraction inhibited in the dose matrix, 72 h); higher = more inhibition; extreme values may be limits of the assay
[1] = tested on: NCI-H2085 (Non-Small Cell Lung Carcinoma)
Outline: (§1)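 Bliss excess equals the observed combination effect minus the expected value EA + EB − EA·EB, where EA and EB are the effects of each agent alone. Combination Emax is the second-highest inhibition within the matrix. Inhibition was scaled from CellTiter-Glo 2.0 luminescence, with 0 set by vehicle wells and 1 by blank wells, after 72 hours of two-drug dosing of cells plated in 1536-well plates.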

[2] = tested on: TE-15 (Esophageal Squamous Cell Carcinoma)
Outline: as §1

[3] = tested on: HO-1-N-1 (Oral Cavity Carcinoma)
Outline: as §1

[4] = tested on: Ramos-2G6-4C10 (Burkitt's Lymphoma)
Outline: as §1

[5] = tested on: NCI-H82 (Small Cell Lung Carcinoma)
Outline: as §1

KELLY (Neuroblastoma) = tested on: KELLY (Neuroblastoma)
Outline: as §1

[6] = tested on: Calu-3 (Lung Adenocarcinoma)
Outline: as §1

[7] = tested on: UM-UC-3 (Bladder Carcinoma)
Outline: as §1

[8] = tested on: TE-9 (Esophageal Squamous Cell Carcinoma)
Outline: as §1

[9] = tested on: HCC-78 (Lung Adenocarcinoma)
Outline: as §1

[10] = tested on: DoTc2-4510 (Cervical Carcinoma)
Outline: as §1

[11] = tested on: HT-1376 (Bladder Carcinoma)
Outline: as §1

[12] = tested on: Hs-578-T (Breast Carcinoma)
Outline: as §1

NB10 (Neuroblastoma) = tested on: NB10 (Neuroblastoma)
Outline: as §1

[13] = tested on: KURAMOCHI (Ovarian Carcinoma)
Outline: as §1

[14] = tested on: CAL-148 (Breast Carcinoma)
Outline: as §1

[15] = tested on: CaR-1 (Colorectal Carcinoma)
Outline: as §1

[16] = tested on: CCRF-CEM (T-Lymphoblastic Leukemia)
Outline: as §1

[17] = tested on: ME-1 (Acute Myeloid Leukemia)
Outline: as §1

T98G (Glioblastoma) = tested on: T98G (Glioblastoma)
Outline: as §1

SMILES | combination Emax [1] | combination Emax [2] | combination Emax [3] | combination Emax [4] | combination Emax [5] | combination Emax (KELLY (Neuroblastoma)) | combination Emax [6] | combination Emax [7] | combination Emax [8] | combination Emax [9] | combination Emax [10] | combination Emax [11] | combination Emax [12] | combination Emax (NB10 (Neuroblastoma)) | combination Emax [13] | combination Emax [14] | combination Emax [15] | combination Emax [16] | combination Emax [17] | combination Emax (T98G (Glioblastoma))
Cc1c2c(nn1C)CSCc1cc(n(C)n1)CSc1cc(c3ccccc3c1)OCCCc1c(C(=O)O)n(C)c3c-2c(Cl)ccc13 [AZD5991] + CC(=O)O[C@H]1C(=O)[C@@]2(C)[C@H]([C@H](OC(=O)c3ccccc3)[C@]3(O)C[C@H](OC(=O)[C@H](O)[C@@H](NC(=O)c4ccccc4)c4ccccc4)C(C)=C1C3(C)C)[C@]1(OC(C)=O)CO[C@@H]1C[C@@H]2O [Paclitaxel] (first compound max 1 µM, 7x7, partner max 3 µM) | 0.743 | 0.998 | 1 | 1 | 0.997 | 1 | 0.346 | 0.745 | 0.789 | 0.433 | 0.544 | 0.0587 | 0.988 | 0.915 | 0.539 | 0.81 | 0.741 | 0.992 | 0.715 | 0.883
Cc1c2c(nn1C)CSCc1cc(n(C)n1)CSc1cc(c3ccccc3c1)OCCCc1c(C(=O)O)n(C)c3c-2c(Cl)ccc13 [AZD5991] + CS(=O)(=O)CCNCc1ccc(-c2ccc3ncnc(Nc4ccc(OCc5cccc(F)c5)c(Cl)c4)c3c2)o1 [Lapatinib] (first compound max 1 µM, 7x7, partner max 10 µM) | 0.47 | 0.764 | 0.962 | 0.996 | 0.963 | 1 | 0.895 | 0.169 | 0.193 | 0.173 | 0.549 | 0.33 | 0.833 | 0.177 | 0.674 | 0.492 | 0.432 | 0.594 | 0.646 | 0.412
Cc1c2c(nn1C)CSCc1cc(n(C)n1)CSc1cc(c3ccccc3c1)OCCCc1c(C(=O)O)n(C)c3c-2c(Cl)ccc13 [AZD5991] + Nc1ccn([C@@H]2O[C@H](CO)[C@@H](O)C2(F)F)c(=O)n1 [Gemcitabine] (first compound max 1 µM, 7x7, partner max 0.3 µM) | 0.203 | 0.931 | 0.994 | 0.994 | 0.972 | 1 | 0.534 | 0.832 | 0.343 | 0.787 | 0.544 | 0.215 | 0.663 | 0.778 | 0.491 | 0.929 | 0.629 | 0.987 | 0.676 | 0.5
C[C@@H]1COCCN1c1cc(C2([S@](C)(=N)=O)CC2)nc(-c2ccnc3[nH]ccc23)n1 [AZD6738] + C1CC(C1)(C(=O)[O-])C(=O)[O-].N.N.[Pt+2] [Carboplatin] (first compound max 10 µM, 7x7, partner max 10 µM) | 0.381 | 0.857 | 0.779 | 0.88 | 0.823 | 0.944 | 0.555 | 0.398 | 0.264 | 0.662 | 0.492 | 0.454 | 0.69 | 0.689 | 0.636 | 0.818 | 0.385 | 0.977 | 0.348 | 0.886
Cc1cc2ncnn2cc1Nc1ncc2c(n1)n(C1CCOCC1)c(=O)n2C [AZD7648] + COc1cc([C@@H]2c3cc4c(cc3[C@@H](O[C@@H]3O[C@@H]5CO[C@@H](C)O[C@H]5[C@H](O)[C@H]3O)[C@H]3COC(=O)[C@H]23)OCO4)cc(OC)c1O [Etoposide] (first compound max 10 µM, 7x7, partner max 10 µM) | 0.434 | 0.835 | 0.987 | 0.963 | 0.848 | 0.793 | 0.744 | 0.875 | 0.287 | 0.774 | 0.721 | 0.515 | 0.662 | 0.872 | 0.474 | 1 | 0.661 | 1 | 0.272 | 0.741
C[C@@H](Nc1cc(F)cc(F)c1)c1cc(C(=O)N(C)C)cc2c(=O)cc(N3CCOCC3)oc12 [AZD8186] + C1CN(CCC1(C(=O)N[C@@H](CCO)C2=CC=C(C=C2)Cl)N)C3=NC=NC4=C3C=CN4 [AZD5363] (first compound max 10 µM, 7x7, partner max 10 µM) | 0.542 | 0.496 | 0.54 | 0.26 | 0.358 | 0.115 | 0.318 | 0.4 | 0.198 | 0.34 | 0.286 | 0.116 | 0.7 | 0.228 | 0.254 | 0.989 | 0.394 | 0.411 | 0.103 | 0.562
